{"source": "patent US20250230193A1", "about": "“CYCLIC COMPOUND HAVING SELECTIVE KRAS INHIBITORY EFFECT ON HRAS AND NRAS” (CHUGAI SEIYAKU KABUSHIKI KAISHA, priority 2022, published 2025)", "key": {"[1]": {"target": "GDP-bound NRAS wild-type protein (Homo sapiens, UniProt P01111)", "sequence (P01111 whole entry)": "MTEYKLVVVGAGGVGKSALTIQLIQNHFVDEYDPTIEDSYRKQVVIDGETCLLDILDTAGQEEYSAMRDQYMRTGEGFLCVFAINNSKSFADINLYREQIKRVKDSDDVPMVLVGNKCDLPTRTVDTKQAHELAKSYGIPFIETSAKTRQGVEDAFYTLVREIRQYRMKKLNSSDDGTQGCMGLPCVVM", "assay": "Binding to NRAS by surface plasmon resonance (SPR), Single Cycle Kinetics"}, "[2]": {"target": "GDP-bound HRAS wild-type protein (Homo sapiens, UniProt P01112)", "sequence (P01112 whole entry)": "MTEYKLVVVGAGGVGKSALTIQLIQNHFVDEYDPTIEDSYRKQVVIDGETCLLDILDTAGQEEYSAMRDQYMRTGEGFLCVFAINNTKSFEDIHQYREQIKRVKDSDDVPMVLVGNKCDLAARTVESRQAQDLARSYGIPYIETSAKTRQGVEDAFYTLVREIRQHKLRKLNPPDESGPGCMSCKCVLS", "assay": "Binding to HRAS by surface plasmon resonance (SPR), Single Cycle Kinetics"}, "[3]": {"conditions": "KD ratio NRAS/KRAS, class symbols"}, "[4]": {"conditions": "KD ratio HRAS/KRAS, class symbols"}}, "note": "Where a SMILES comes first, the peptide text is derived from it. Bridges are numbered along the chain shown (N, C = ends). [ ]: non-standard residue; d: D form. hPhe(3-Cl-4-CF3) = N[C@@H](CCc1ccc(C(F)(F)F)c(Cl)c1)C(=O)O; NPrPhe(4-CF3) = CCCN[C@@H](Cc1ccc(C(F)(F)F)cc1)C(=O)O; NMeGly(cPent) = CN[C@H](C(=O)O)C1CCCC1; Hyp = O=C(O)[C@@H]1C[C@@H](O)CN1; NMeL = CN[C@@H](CC(C)C)C(=O)O; Ac4c = NC1(C(=O)O)CCC1; Sar = CNCC(=O)O"}
{"smiles": "CCC[C@H]1C(=O)N[C@@H]([C@@H](C)CC)C(=O)N(C)CC(=O)N(C)[C@H]2C/C=C\\CCN(C2=O)[C@@H](Cc2ccc(C)cc2)C(=O)N(C)CC(=O)N[C@@H](CCc2ccc3sc(C)c(C)c3c2)C(=O)N2C[C@H](OCC)C[C@H]2C(=O)NC2(CC(C)(C)C2)C(=O)N(C)[C@@H](C(CC)CC)C(=O)N(C)[C@H](C(=O)N(C)C)CC(=O)N1C", "note": "[PP2902]", "values": [{"measurement": "NRAS/KRAS (ratio of KD value with respect to GDP-bound NRAS wild-type protein to KD value with respect to KRAS)", "setting": "[1]; [3]", "result": "AA (a compound having 20 or more is denoted as AA)"}, {"measurement": "HRAS/KRAS (ratio of KD value with respect to GDP-bound HRAS wild-type protein to KD value with respect to KRAS)", "setting": "[2]; [4]", "result": "A (a compound having 10 or more and less than 20 is denoted as A)"}]}
{"smiles": "CCCCO[C@H]1CCN2C(=O)[C@H](CCc3cc(F)c(C(F)(F)F)c(F)c3)NC(=O)CN(C)C(=O)[C@H](Cc3ccc(C(F)(F)F)cc3)N3CCCCC[C@@H](C3=O)N(C)C(=O)CN(C)C(=O)[C@H]([C@@H](C)CC)NC(=O)[C@H](CC(C)C)N(C)C(=O)C[C@@H](C(=O)N3CCOCC3)N(C)C(=O)[C@H](C3CCCC3)N(C)C(=O)C3(CCC3)NC(=O)[C@H]12", "note": "[PP1009]", "values": [{"measurement": "NRAS/KRAS (ratio of KD value with respect to NRAS to KD value with respect to KRAS)", "setting": "[1]; KD ratio, GDP-bound NRAS wild-type vs GDP-bound KRAS wild-type, SPR", "result": "B (a compound having 3 or more and less than 10 is denoted as B)"}, {"measurement": "HRAS/KRAS (ratio of KD value with respect to HRAS to KD value with respect to KRAS)", "setting": "[2]; KD ratio, GDP-bound HRAS wild-type vs GDP-bound KRAS wild-type, SPR", "result": "B (a compound having 3 or more and less than 10 is denoted as B)"}]}
{"smiles": "CC[C@H](C)[C@@H]1NC(=O)[C@H](CC(C)C)N(C)C(=O)C[C@@H](C(=O)N(C)C)N(C)C(=O)[C@H](C2CCCC2)N(C)C(=O)C2(CCC2)NC(=O)[C@@H]2CC(F)(F)CN2C(=O)[C@H](CCc2cc(F)c(C(F)(F)F)c(F)c2)NC(=O)CN(C)C(=O)[C@H](Cc2ccc(C(F)(F)F)cc2)N2CCCCC[C@@H](C2=O)N(C)C(=O)CN(C)C1=O", "note": "[PP0466]", "values": [{"measurement": "NRAS/KRAS (ratio of KD value with respect to GDP-bound NRAS wild-type protein to KD value with respect to KRAS)", "setting": "[1]; KD ratio NRAS/KRAS, SPR", "result": "B (a compound having 3 or more and less than 10 is denoted as B)"}, {"measurement": "HRAS/KRAS (ratio of KD value with respect to GDP-bound HRAS wild-type protein to KD value with respect to KRAS)", "setting": "[2]; KD ratio HRAS/KRAS, SPR", "result": "B (a compound having 3 or more and less than 10 is denoted as B)"}]}
{"smiles": "CCC[C@H]1C(=O)N[C@@H]([C@@H](C)CC)C(=O)N(C)CC(=O)N(C)[C@H]2C/C=C\\CCN(C2=O)[C@@H](Cc2ccc(C)cc2)C(=O)N(C)CC(=O)N[C@@H](CCc2ccc(CC)c(Cl)c2)C(=O)N2C[C@H](OCC)C[C@H]2C(=O)NC2(CC(C)(C)C2)C(=O)N(C)[C@@H](C(CC)CC)C(=O)N(C)[C@H](C(=O)N(C)C)CC(=O)N1C", "note": "[PP2779]", "values": [{"measurement": "NRAS/KRAS (ratio of KD value with respect to GDP-bound NRAS wild-type protein to KD value with respect to KRAS)", "setting": "[1]; [3]", "result": "A (a compound having 10 or more and less than 20 is denoted as A)"}, {"measurement": "HRAS/KRAS (ratio of KD value with respect to GDP-bound HRAS wild-type protein to KD value with respect to KRAS)", "setting": "[2]; [4]", "result": "A (a compound having 10 or more and less than 20 is denoted as A)"}]}
{"smiles": "CC[C@H](C)[C@@H]1NC(=O)[C@@H]2CCC/C=C/c3ccc(cc3)C[C@@H](C(=O)N(C)CC(=O)N[C@@H](CCc3ccc(Cl)c(Cl)c3)C(=O)N3CCC[C@H]3C(=O)NC3(CC(C)(C)C3)C(=O)N(C)[C@@H](C3CCCC3)C(=O)N(C)[C@H](C(=O)N3CCCC3)CC(=O)N2C)N2CC/C=C\\C[C@@H](C2=O)N(C)C(=O)CN(C)C1=O", "note": "[PP2602]", "values": [{"measurement": "NRAS/KRAS (ratio of KD value with respect to GDP-bound NRAS wild-type protein to KD value with respect to KRAS)", "setting": "[1]; [3]", "result": "A (a compound having 10 or more and less than 20 is denoted as A)"}, {"measurement": "HRAS/KRAS (ratio of KD value with respect to GDP-bound HRAS wild-type protein to KD value with respect to KRAS)", "setting": "[2]; [4]", "result": "A (a compound having 10 or more and less than 20 is denoted as A)"}]}
{"smiles": "CCCN1C(=O)CN(C)C(=O)CNC(=O)[C@H]([C@@H](C)CC)NC(=O)[C@H](CC(C)C)N(C)C(=O)C[C@@H](C(=O)N(C)C)NC(=O)[C@H](C2CCCC2)N(C)C(=O)C2(CCC2)NC(=O)[C@@H]2C[C@@H](OCC)CN2C(=O)[C@H](CCc2ccc(C(F)(F)F)c(Cl)c2)NC(=O)CN(C)C(=O)[C@@H]1Cc1ccc(C(F)(F)F)cc1", "note": "[PP0366] ([NMeL]IG[Sar][NPrPhe(4-CF3)][Sar][hPhe(3-Cl-4-CF3)][Hyp](Et)[Ac4c][NMeGly(cPent)]D-NMe2; lactam N-11)", "values": [{"measurement": "NRAS/KRAS (ratio of KD for GDP-bound NRAS wild-type to KD for KRAS)", "setting": "[1]; KD ratio NRAS/KRAS, SPR", "result": "B (a compound having 3 or more and less than 10 is denoted as B)"}, {"measurement": "HRAS/KRAS (ratio of KD for GDP-bound HRAS wild-type to KD for KRAS)", "setting": "[2]; KD ratio HRAS/KRAS, SPR", "result": "B (a compound having 3 or more and less than 10 is denoted as B)"}]}
{"smiles": "CCO[C@@H]1C[C@H]2C(=O)NC3(CC(C)(C)C3)C(=O)N(C)[C@@H](C(CC)CC)C(=O)N(C)[C@H](C(=O)N(C)C)CC(=O)N(C)[C@H]3CCCCCc4ccc(cc4)C[C@@H](C(=O)N(C)CC(=O)N[C@@H](CCc4ccc(C(F)(F)F)c(OC)c4)C(=O)N2C1)N1CC/C=C\\C[C@@H](C1=O)N(C)C(=O)CN(C)C(=O)[C@H]([C@@H](C)CC)NC3=O", "note": "[PP3035]", "values": [{"measurement": "NRAS/KRAS (ratio of KD value with respect to GDP-bound NRAS wild-type protein to KD value with respect to KRAS)", "setting": "[1]; KD ratio NRAS/KRAS, SPR, GDP-bound wild-type proteins", "result": "AA (a compound having 20 or more is denoted as AA)"}, {"measurement": "HRAS/KRAS (ratio of KD value with respect to GDP-bound HRAS wild-type protein to KD value with respect to KRAS)", "setting": "[2]; KD ratio HRAS/KRAS, SPR, GDP-bound wild-type proteins", "result": "A (a compound having 10 or more and less than 20 is denoted as A)"}]}
